Six compounds from US11236077B2, “Fruquintinib eutectic crystal, preparation method therefor, composition, and uses thereof” (Hangzhou SoliPharma Co., Ltd., priority 2018, dated 2022) can be followed below.

Values after ≈ are worked out from the molar mass of the structure shown.

Common to all, as to type: physicochemical
A short description of series [1]: Solubility in water. The following applies: for Solubility in Water / solubility at 1 min: 10 mg in 10 ml deionized water, ultrasound 1 min, filtration, HPLC; for Solubility in Water: 25° C.; for solubility in 25° C. water compared with known fruquintinib Form I: Comparative Example 1, result in words; for solubility at 1 min: deionized water, 25 °C, water, thermodynamic from solid. The method, then:
High performance liquid chromatography (HPLC) data were collected on Ultimate 3000 and the concentration was tested with the external standard method. […] The specific operation steps: respectively took 10 mg of each of the above samples and put them into a 20 ml glass bottle respectively, added 10 ml deionized water, placed the solution at 25° C. ultrasound for 1 min, then took the samples for filtration and analyzed their concentrations using HPLC; calculated their solubility in water respectively.

The nature of series [2]: Crystal slurry experiment in water (crystalline form stability). The following applies: Comparative Example 2, result in words. The method, then: X-ray powder diffraction (XRPD): performed on Bruker D8 Advance diffractometer. Samples were tested at room temperature. Testing conditions: 2θ scan range 3 to 40°, step size 0.02° and speed 0.2 s/step. […] The specific operation steps: respectively took 10 mg of each of the above samples and put them into a 5 ml glass bottle respectively, added 2 ml deionized water, stirred the solution at room temperature for 24 hours, then took the samples for filtration; and analyzed their crystalline forms with XRD.

Series [3] is described as follows: Storage stability in desiccators at room temperature and RH 10% to 90%. The following applies: room temperature, 4 months.
A short description of series [4]: Solubility in water. The following applies: background statement, conditions not given.

On to `CNC(=O)c1c(C)oc2cc(Oc3ncnc4cc(OC)c(OC)cc34)ccc12` [Known fruquintinib Crystalline Form VII, 6-(6,7-dimethoxyquinazoline-4-oxy)-N,2-dimethyl benzofuran-3-formamide, reference compound], for which, in the series “Solubility in water [1]”, the “Solubility in Water” value was found to be 2.6 µg/mL (≈ 6.61 µM).

With `CNC(=O)c1c(C)oc2cc(Oc3ncnc4cc(OC)c(OC)cc34)ccc12` [Compound A], the “Solubility in Water” value in the series “Solubility in water [1]” (listed as Crystalline Form of Compound A of the present invention) came to 9.9 µg/mL (≈ 25.2 µM). Moreover, in the series “Solubility in water [1]”, the “solubility in 25° C. water compared with known fruquintinib Form I” value is given as “higher”. Also, in series [2], the “crystalline form after having been stirred in water for 24 hours” value (“crystalline form” for short) was “kept its form unchanged”. Also, the “appearance, XRPD and melting point after storage” value (“appearance … after storage” for short) in series [3] was “unchanged”.

Regarding `CNC(=O)c1c(C)oc2cc(Oc3ncnc4cc(OC)c(OC)cc34)ccc12.O=C(O)/C=C\C(=O)O`, in the series “Solubility in water [1]”, the “solubility in 25° C. water compared with known fruquintinib Form I” value is given as “higher” and the solubility (as a rule, how much of the substance goes into solution per volume) at 1 min was determined as 9.4 µg/mL. Moreover, the “crystalline form” value in series [2] is “kept its form unchanged”. In addition, the “appearance … after storage” value in series [3] was “unchanged”.

On to `CNC(=O)c1c(C)oc2cc(Oc3ncnc4cc(OC)c(OC)cc34)ccc12.O=C(O)CC(=O)O`, for which, in “Solubility in water [1]”, the “solubility in 25° C. water compared with known fruquintinib Form I” value was “higher” and the solubility at 1 min came to 12 µg/mL. Moreover, the “crystalline form” value in series [2] is “kept its form unchanged”. In series [3], the “appearance … after storage” value was “unchanged”.

As for `CNC(=O)c1c(C)oc2cc(Oc3ncnc4cc(OC)c(OC)cc34)ccc12` [Known fruquintinib Crystalline Form III, 6-(6,7-dimethoxyquinazoline-4-oxy)-N,2-dimethyl benzofuran-3-formamide, reference compound], the “Solubility in Water” value in “Solubility in water [1]” was 2.1 µg/mL (≈ 5.34 µM).

Regarding `CNC(=O)c1c(C)oc2cc(Oc3ncnc4cc(OC)c(OC)cc34)ccc12` [Known fruquintinib Crystalline Form I, 6-(6,7-dimethoxyquinazoline-4-oxy)-N,2-dimethyl benzofuran-3-formamide, reference compound], the “solubility in water (inventors' finding)” value in “Solubility in water [4]” is listed as “poor”. In addition, in “Solubility in water [1]”, the “Solubility in Water” value worked out at 2.2 µg/mL (≈ 5.59 µM).
